Tests used:
[1] = Central nervous system (CNS) depression/effects; settings: in vivo
[2] = system: glucose-loaded mice; experiment: Hypoglycemic, glucose-loaded mice; format: in vivo, mouse; settings: glucose loaded mice, 100 mg/kg oral dose; significance >20
Procedure: Reduction in blood glucose concentration by more than 20% (>20) in fasted, glucose-loaded (1 gm/kg) mice one hour after dosing, p.o., indicates activity (test compound administered at same time as glucose load).
^5 H = Hypoglycemic. Percent decrease in serum glucose concentration
in glucose loaded mice hr. following a 100 mg/kg oral dose.

[3] = system: mice; experiment: Antiarrhythmic: chloroform-induced cardiac arrhythmia in mice; format: in vivo, mouse; settings: for A = Antiarrythmic: mouse hearts fibrillating (of 3): 15 min. after a 200 mg/kg intraperitoneal dose, significance <2
Procedure: ^2 A = Antiarrythmic. Less than 2/3 mouse hearts fibrillating 15 min.

[4] = system: rats; experiment: Bradycardia: heart rate by EKG in rats; format: in vivo, rat; settings: Rattus norvegicus, 0.75 h; 45 min. after a 5 mg/kg oral dose in rats; significance >10; read-out: B = Bradycardiac: percent decrease in heart rate
Procedure: […] Decrease in heart rate by more than 10% (>10) is considered a bradycardic effect.
Percent decrease in heart rate 45 min. after a 5
mg/kg oral dose in rats.

[5] = system: spontaneously hypertensive rats (SHR); experiment: Antihypertensive: blood pressure (tail cuff) in spontaneously hypertensive rats (SHR); format: in vivo, rat; settings: for inhibition in vivo at 100 mg/kg: Rattus norvegicus, 6 hr. after a 100 mg/kg oral dose, significance >10, read-out: Antihypertensive: percent decrease in systolic blood pressure in spontaneously hypertensive rats
Procedure: Blood pressure was measured indirectly (tail cuff) in unanesthetized, unheated spontaneously hypertensive rats (SHR) before and 2, 4, and 6 hours after p.o. dosing. Reduction in mean pressure by more than 10% (>10) at any two consecutive measurement times after dosing indicates antihypertensive activity.

[6] = Anticholinergic properties (overall statement); settings: in vivo
[7] = system: mice; experiment: Acute toxicity / autonomic effects observation; settings: mouse, in vivo
Procedure: Mice were dosed at 300 mg/kg, per oral (p.o.) and […], interperitoneal (i.p.) for observation of any acute toxic symptoms or autonomic effects during the subsequent 72 hours. If none were noted, pharmacological evaluation proceeded employing doses and concentrations for each test based on appropriate multiples of doses required by suitable reference compounds. If acute toxicity was observed initially, the minimal toxic dose was determined and pharmacological screening doses were reduced proportionately.

[8] = system: hypercholesterolemic mice; experiment: Hypocholesterolemic: serum cholesterol in hypercholesterolemic mice; format: in vivo, mouse; settings: hypercholesterolemic mice; for inhibition in vivo at 200 mg/kg / ED100: Mus musculus; for inhibition in vivo at 200 mg/kg: 2 oral doses of 200 mg/kg 20 hr. apart, significance >20, read-out: C = Hypocholesterolemic: percent decrease in serum cholesterol; for ED100: po, read-out: ED-100, hypocholesterolemic
Procedure: Mice made hypercholesterolemic by being fed a high cholesterol-cholic acid diet for 7 days were dosed on the sixth and seventh days, p.o. After fasting overnight, reduction in serum cholesterol concentration by more than 15% (>15) from hypercholesterolemic control mice indicates activity.
^4 C = Hypocholesterolemic. Percent decrease in serum cholesterol in
hypercholesterolemic mice given 2 oral doses of 200 mg/kg drug candidate

[9] = system: rats; experiment: Antiulcer: stress induced gastric ulcers in rats; format: in vivo, rat; settings: for inhibition in vivo at 50 mg/kg: 4 hr. following a 50 mg/kg oral dose in rats, significance >60, read-out: U = Antiulcerative: percent inhibition of stress ulcers
Procedure: Fasted rats were dosed, p.o., 30 minutes before immobilization in wire mesh and partial immersion in water for 4 hours. Inhibition of the resulting stress induced gastric ulcers by more than 60% (>60) indicates activity.
^6 U = Antiulcerative. Percent inhibition of stress ulcers 4 hr.
following a 50 mg/kg oral dose in rats.

[10] = system: hypercholesterolemic mice; experiment: HP-betalipoprotein: serum heparin precipitating lipoprotein (HPL); format: in vivo, mouse; settings: hypercholesterolemic mice; for ED100: Mus musculus, po, read-out: ED-100, HP-betalipoprotein
From the text: Reduction of serum heparin precipitating lipoprotein (HPL) concentrations (corresponding to low density lipoprotein and very low density lipoprotein fractions) in the same hypercholesterolemic mice from Test 6 above by more than 20% (>20) from control animals indicates activity.

[11] = system: mice; experiment: Pupil dilation in mice; format: in vivo, mouse; settings: i.p.
Procedure: If the pupil diameter of mice exceeds 1.0 mm (>1) in bright light 30 minutes after dosing, i.p., ganglionic blockage or anti-cholinergic activity is indicated in the absence of adrenergic action. The following are reference compounds and the doses thereof.

[12] = Overall pharmacological profile; settings: in vivo
[13] = system: mice; experiment: Peripheral anticholinergic: lacrimation and salivation in mice; format: in vivo; settings: Mus musculus, ip, read-out: ED-100, peripheral anticholinergic
[14] = system: mice; experiment: Central anticholinergic: oxotremorine tremors in mice; settings: Mus musculus, ip, 1 h, read-out: ED-100, central anticholinergic

Row | Compound | A = Antiarrythmic: mouse hearts fibrillating (of 3) [3] | inhibition in vivo at 5 mg/kg [4] [%] | inhibition in vivo at 100 mg/kg [5] [%] | Anticholinergic properties/effects [6] | inhibition in vivo at 200 mg/kg [8] [%] | inhibition in vivo at 50 mg/kg ([9]; Rattus norvegicus) [%] | also measured
1 | CC1(C)CCCC(C)(C)N1CC1=CC(=O)N(c2cccc(C(F)(F)F)c2)C1 [Compound 1] | 0 | 14 | 19 | absence of notable | 5 | 75 | CNS depression / CNS effects [1]: absence of notable central nervous system (CNS) depression; H = Hypoglycemic: percent decrease in serum glucose concentration [2]: 14%; Acute toxicity / toxic effects [7]: apparent lack of acute toxicity
2 | Cc1cccc(N2CC(CN3C(C)(C)CCCC3(C)C)=CC2=O)c1 [Compound 4] | 2 | 19 | 23 |  | 25 | 75 | HPL/cholesterol ratio ([10]; 400 mg/kg, p.o.): marked reduction; Pupil dilation ([11]; 50 mg/kg): significantly dilated; Dose with borderline antiarrhythmic result ([3]; i.p., mice, chloroform arrhythmia): 100 mg/kg; Antihypertensive activity, onset / comparison in words ([5]; p.o.): generally comparable to that of Compound 3; Dose at which antihypertensive effects were decreasing ([5]; p.o.): 10 mg/kg
3 | CC1(C)CCCC(C)(C)N1CC1=CC(=O)N(c2ccc(C(F)(F)F)cc2)C1 [Compound 7] | 3 | 12 | 16 |  | 0 | 38 | H = Hypoglycemic: percent decrease in serum glucose concentration [2]: 22%; Profile (comparison with another compound) [12]: generally similar to that of Compound 6
4 | CSc1ccc(N2CC(CN3C(C)(C)CCCC3(C)C)=CC2=O)cc1 [Compound 8] | 3 | 18 | 25 |  | 0 | 50 | Profile (comparison with another compound) [12]: generally similar to that of Compound 6
5 | CC1(C)CCCC(C)(C)N1CC1=CC(=O)N(c2ccccc2Cl)C1 [Compound 9] | 0 | 18 | 31 | not likely anticholinergic in nature | 0 | 100 | Ganglionic blockade as cause of pupillary dilation ([11]; 25 mg/kg): does not appear to reflect ganglionic blockade; Pupil dilation ([11]; 25 mg/kg): Pupillary dilation was again noted; H = Hypoglycemic: percent decrease in serum glucose concentration [2]: 27%
6 | COc1ccc(N2CC(CN3C(C)(C)CCCC3(C)C)=CC2=O)cc1OC [Compound 12] | 2 | 13 | 14 |  | 3 | 75 | Profile (comparison with another compound) [12]: generally similar to that of Compound 6
7 | CC1(C)CCCC(C)(C)N1CC1=CC(=O)N(c2cccc(Cl)c2)C1 [Compound 13] | 3 | 1 | 4 | absence | 13 | 88 | CNS depression / CNS effects [1]: absence of CNS; Acute toxicity / toxic effects [7]: absence
8 | CC1(C)CCCC(C)(C)N1CC1=CC(=O)N(c2cccc(C#N)c2)C1 [Compound 15] | 3 | 0 | 19 | absence | 15 | 88 | CNS depression / CNS effects [1]: absence of CNS depression; Acute toxicity / toxic effects [7]: absence; Antiulcer effect, in words ([9]; rat, in vivo): unusual and strong activity
9 | c1cc(N2CCCCC2)ccc1OC12CC3CC(CC(C3)C1)C2 [Compound U-41792, reference compound] |  |  |  |  |  |  | ED-100, HP-betalipoprotein ([10]; reference compounds): 200 mg/kg; ED-100, hypocholesterolemic ([8]; p.o., reference compounds): 200 mg/kg
10 | N[C@H](Cc1cc(I)c(Oc2cc(I)c(O)c(I)c2)c(I)c1)C(=O)O [D-thyroxine, reference compound] |  |  |  |  |  |  | ED100 ([10]; reference compounds): 10 mg/kg; ED100 ([8]; reference compounds): 10 mg/kg
11 | CN(C)CCC=C1c2ccccc2CCc2ccccc21 [amitriptyline] |  |  |  |  |  |  | ED100 ([13]; mice, reference compounds): 25 mg/kg; ED100 [14]: 10 mg/kg
12 | CN1[C@@H]2CC[C@H]1C[C@@H](OC(=O)C(CO)c1ccccc1)C2 (stereo partly shown) [atropine, reference compound] |  |  |  |  |  |  | Reference dose, pupil dilation ([11]; reference compounds and the doses thereof): 0.25 mg/kg; ED100 [13]: 0.25 mg/kg; ED100 [14]: 2 mg/kg; ED100 ([9]; Rattus norvegicus, po, read-out: ED-100, antiulcer): 5 mg/kg
13 | CC(C)(Oc1ccc(CCNC(=O)c2ccc(Cl)cc2)cc1)C(=O)O [bezafibrate, reference compound] |  |  |  |  |  |  | ED100 ([10]; reference compounds): 200 mg/kg; ED100 ([8]; reference compounds): 200 mg/kg
